{"source": "patent US20240058298A1", "about": "“GENISTEIN FOR USE IN THE TREATMENT OF FOCAL SEGMENTAL GLOMERULOSCLEROSIS (FSGS)” (Delta 4 GmbH, priority 2020, published 2024)", "tested_on": "adriamycin induced nephropathy (FSGS model)", "test": "Adriamycin induced nephropathy mouse model of FSGS, proteinuria (UPCR, UACR) in spot urine", "assay_type": "in vivo, Female Balb/c mice", "conditions": "for urinary protein to creatinine ratio (UPCR): Balb/c mice, adriamycin 10.5 mg/kg i.v., chow + genistein 500 mg/kg (about 80 mg/kg mouse/day) from day 2, weekly spot urine, vs control chow", "experimental": "For biological testing of genistein, the accepted mouse models of FSGS, was chosen, i.e. the adriamycin induced nephropathy. […] All animal experiments and handling were in accordance with the Austrian law for protection of animals and approved by the animal ethics committee of the Austrian ministry for science and research.\nAdriamycin (Doxorubicin; Sigma, D1515-10 mg) was diluted in ddH2O. To induce FSGS, a dose of 10.5 mg/kg mouse was injected i.v. into the tail vein using 27G needles, i.e. a total volume of 200 μl volume per 25 g mouse.\nFor tail vein injection, mice were anaesthetized using Ketanest (Pfizer, 25 mg/ml vials) and Rompun (Bayer, 20 mg/ml injection solution). A final mix of 12.5 mg/ml Ketanest and 0.25% Rompun in 0.9% NaCl solution was prepared and 200 μl/25 g mouse were injected. Genistein (Selleckchem, S1342) was used for therapy experiments.\nFemale Balb/c mice were obtained from the animal breeding facility of the Medical University (Abteilung kw Labortierkunde, Himberg, Austria). 8-18 weeks old animals with a weight >17g were used for the experiments and adjusted for weight and age. Animals were allowed acclimatization of at least 7 days. Animal were marked by ear or toe clip codes to allow identification. Adriamycin nephropathy in Balb/c mice is the most commonly used animal model for preclinical FSGS studies and shares the central features with human FSGS.\nStandard commercial chow from ssniff (ssniff Spezialdiäten GmbH, Soest, Germany) contained crude protein (19%), crude fat (3.3%), crude fiber (4.9%), crude ash (6.4%), starch (36.5%), sugar (4.7%). Control group animals were fed standard chow, test group animals standard chow+genistein (500 mg/kg) produced by ssniff. All animals were allowed to eat ad libitum assuming a daily average uptake of about 4 grams/mouse (according to animal care guideline of the Johns Hopkins University, Baltimore, MD, USA; http://web.jhu.edu/animalcare/ procedures/mouse.html), i.e. about 80 mg genistein/kg mouse/day (Odle et al. 2017).\nSpot urine was collected every week and Creatinine and protein levels were measured in the Clinical Institute for Laboratory Medicine of the Medical University Vienna.\nUrinary albumin was measured by ELISA. 96-well plates were coated over night at 4° C. with 100 μl antibody solution Anti Mouse Serum Albumin antibody (Abcam ab34807, Lot GR3242102-4; diluted 1:2,000) in coating buffer (3.7g NaHCO3; 0.64 g Na2CO3; 1L distilled water). The remaining procedure was performed at room temperature. Wells were washed 3× with HBSS (Sigma H8264-500ML) +0,05% Tween-20 (Bio-Rad, #1706531) and blocked in ELISA/ELISPOT Diluent (eBioscience, 00-4202-56) and washed again for 3×. Samples and standard curve were both diluted in ELISA/ELISPOT diluent were incubated for 2 h, followed by 3 wash steps with HBSS+0.05% Tween-20, incubated with HRP antibody Anti Mouse Serum Albumin antibody (Abcam ab19195, Lot GR3242102-4; diluted 1:100,000) for 1 h, followed by 5 was steps. Reaction was developed with TMB One Solution (Promega, G7431) and stopped with 2N H2SO4. Standard curves were generated with Mouse Albumin (Merck/Sigma, 126674-25MG). 450nm absorbance was measured on an Epoch Microplate reader (BioTek) using Gen5 1.10 software.\nR version 4.0.2 was used for statistical analysis. Student's t-test was used for comparing UPCR and UACR values between samples from treated and control mice for each individual time point and to assess differences in histological parameters. […]"}
{"smiles": "O=c1c(-c2ccc(O)cc2)coc2cc(O)cc(O)c12", "note": "[Genistein, 5,7-Dihydroxy-3-(4-hydroxyphenyl)chromen-4-one]", "values": [{"measurement": "urinary protein to creatinine ratio (UPCR)", "result": "marked amelioration"}, {"measurement": "urinary protein to creatinine ratio (UPCR)", "setting": "listed as compound of the present invention", "result": "significantly lowered"}, {"measurement": "Proteinuria", "setting": "adriamycin FSGS mice, genistein chow vs control", "result": "Significantly Reduces"}, {"measurement": "impact of genistein treatment over time on outcome determined based on UPCR levels (repeated measures ANOVA)", "setting": "adriamycin FSGS mice, genistein chow vs control, all collected urines (FIG. 1)", "result": "significant beneficial impact"}, {"measurement": "urine albumin/creatinine ratio (UACR)", "setting": "animal studies, urinary albumin by ELISA, genistein vs control", "result": "significantly lowered"}]}
